Measured values from PubChem BioAssay (NCI).
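Method: 48-hour compound exposure of cells in 96-well plates, five concentrations, linear interpolation of endpoints. GI50: concentration for 50% inhibition of growth. At the TGI there is no net growth.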

What was measured:
Assay in all cases: inhibition of tumour cell growth, NCI panel, 48 h; in the data active = GI50 below about 0.43 µM; inactive = the rest
HOP-62 NSCLC = tested on: HOP-62 NSCLC
HCT-15 colon = tested on: HCT-15 colon
PC-3 prostate = tested on: PC-3 prostate
RPMI-8226 leukemia = tested on: RPMI-8226 leukemia
LOX IMVI melanoma = tested on: LOX IMVI melanoma
SF-268 CNS = tested on: SF-268 CNS
CAKI-1 renal = tested on: CAKI-1 renal
HCT-116 colon = tested on: HCT-116 colon
NCI-H522 lung = tested on: NCI-H522 lung
MCF7 breast = tested on: MCF7 breast
KM12 colon = tested on: KM12 colon
SF-295 CNS = tested on: SF-295 CNS
OVCAR-3 ovarian = tested on: OVCAR-3 ovarian
SN12C renal = tested on: SN12C renal
UACC-257 melanoma = tested on: UACC-257 melanoma
A549 NSCLC = tested on: A549 NSCLC
IGROV1 ovarian = tested on: IGROV1 ovarian
SF-539 CNS = tested on: SF-539 CNS
U251 CNS = tested on: U251 CNS
HL-60(TB) leukemia = tested on: HL-60(TB) leukemia
MOLT-4 leukemia = tested on: MOLT-4 leukemia
COLO 205 colon = tested on: COLO 205 colon
HCC-2998 colon = tested on: HCC-2998 colon
NCI/ADR-RES ovarian = tested on: NCI/ADR-RES ovarian
K-562 leukemia = tested on: K-562 leukemia
SK-MEL-5 melanoma = tested on: SK-MEL-5 melanoma
BT-549 breast = tested on: BT-549 breast
786-0 renal = tested on: 786-0 renal
DU-145 prostate = tested on: DU-145 prostate
MALME-3M melanoma = tested on: MALME-3M melanoma
NCI-H226 lung = tested on: NCI-H226 lung
OVCAR-5 ovarian = tested on: OVCAR-5 ovarian
HT29 colon = tested on: HT29 colon
MDA-MB-435 = tested on: MDA-MB-435
OVCAR-4 ovarian = tested on: OVCAR-4 ovarian
RXF 393 renal = tested on: RXF 393 renal
HOP-92 NSCLC = tested on: HOP-92 NSCLC
TK-10 renal = tested on: TK-10 renal
SR leukemia = tested on: SR leukemia
HS 578T breast = tested on: HS 578T breast
MDA-N = tested on: MDA-N
UO-31 renal = tested on: UO-31 renal
MDA-MB-231 breast = tested on: MDA-MB-231 breast
A498 renal = tested on: A498 renal
T-47D breast = tested on: T-47D breast
ACHN renal = tested on: ACHN renal
M14 melanoma = tested on: M14 melanoma
NCI-H460 lung = tested on: NCI-H460 lung
SK-MEL-28 melanoma = tested on: SK-MEL-28 melanoma
CCRF-CEM leukemia = tested on: CCRF-CEM leukemia
NCI-H23 lung = tested on: NCI-H23 lung
SNB-19 CNS = tested on: SNB-19 CNS
SNB-75 CNS = tested on: SNB-75 CNS
OVCAR-8 ovarian = tested on: OVCAR-8 ovarian
EKVX NSCLC = tested on: EKVX NSCLC
SW-620 colon = tested on: SW-620 colon
KM20L2 colon = tested on: KM20L2 colon
SK-OV-3 ovarian = tested on: SK-OV-3 ovarian
SK-MEL-2 melanoma = tested on: SK-MEL-2 melanoma
SNB-78 CNS = tested on: SNB-78 CNS
LXFL 529 NSCLC = tested on: LXFL 529 NSCLC
UACC-62 melanoma = tested on: UACC-62 melanoma
DMS 273 small cell lung = tested on: DMS 273 small cell lung
DLD-1 colon = tested on: DLD-1 colon
M19-MEL melanoma = tested on: M19-MEL melanoma
HOP-18 NSCLC = tested on: HOP-18 NSCLC

CN(C)Cc1cc(C(=O)/C=C/c2ccccc2)cc(CN(C)C)c1O
38.4 µM: TGI (SK-MEL-5 melanoma)
78.6 µM: TGI (A498 renal)
64.8 µM: TGI (HCC-2998 colon)
67.4 µM: TGI (HOP-92 NSCLC)
35.7 µM: TGI (MDA-N)
44.8 µM: TGI (NCI-H460 lung)
54.3 µM: TGI (RPMI-8226 leukemia)
33.8 µM: TGI (KM12 colon)
63.7 µM: TGI (MOLT-4 leukemia)
78.5 µM: TGI (NCI-H226 lung)
30.9 µM: TGI (SN12C renal)
36.8 µM: TGI (K-562 leukemia)
71.8 µM: TGI (RXF 393 renal)
42.3 µM: TGI (HL-60(TB) leukemia)
59.1 µM: TGI (SR leukemia)
40.8 µM: TGI (NCI-H522 lung)
99.8 µM: TGI (OVCAR-8 ovarian)
99.1 µM: TGI (OVCAR-3 ovarian)
61.8 µM: TGI (CAKI-1 renal)
44.9 µM: TGI (MALME-3M melanoma)
68.9 µM: TGI (A549 NSCLC)
> 100 µM: TGI (HOP-62 NSCLC) | TGI (HCT-15 colon) | TGI (SF-268 CNS) | TGI (MCF7 breast) | TGI (IGROV1 ovarian) | TGI (U251 CNS) | TGI (NCI/ADR-RES ovarian) | TGI (786-0 renal) | TGI (DU-145 prostate) | TGI (OVCAR-5 ovarian) | TGI (MDA-MB-435) | TGI (OVCAR-4 ovarian) | TGI (TK-10 renal) | TGI (HS 578T breast) | TGI (T-47D breast) | TGI (ACHN renal) | TGI (SK-MEL-28 melanoma) | TGI (CCRF-CEM leukemia) | TGI (NCI-H23 lung) | TGI (SNB-19 CNS) | TGI (SNB-75 CNS) | TGI (EKVX NSCLC)
45.1 µM: TGI (SW-620 colon)
46.5 µM: TGI (SF-539 CNS)
41.4 µM: TGI (HT29 colon)
39.6 µM: TGI (SF-295 CNS)
58.1 µM: TGI (MDA-MB-231 breast)
36.9 µM: TGI (PC-3 prostate)
40.7 µM: TGI (UO-31 renal)
27.9 µM: TGI (UACC-257 melanoma)
87.8 µM: TGI (HCT-116 colon)
42.7 µM: TGI (BT-549 breast)
31.9 µM: TGI (COLO 205 colon)
63.1 µM: TGI (M14 melanoma)
17.7 µM: TGI (LOX IMVI melanoma)

N.N.N.N.N.O=[N+]([O-])[O-].[Co+3].[O-][Cl+3]([O-])([O-])[O-]
inactive: GI50 (HOP-62 NSCLC) > 100 µM | GI50 (HCT-15 colon) > 100 µM | GI50 (RPMI-8226 leukemia) > 100 µM | GI50 (LOX IMVI melanoma) > 100 µM | GI50 (SF-268 CNS) > 100 µM | GI50 (HCT-116 colon) > 100 µM | GI50 (NCI-H522 lung) > 100 µM | GI50 (KM12 colon) > 100 µM | GI50 (SF-295 CNS) > 100 µM | GI50 (KM20L2 colon) > 100 µM | GI50 (SK-OV-3 ovarian) > 100 µM | GI50 (OVCAR-3 ovarian) > 100 µM | GI50 (SN12C renal) > 100 µM | GI50 (SK-MEL-2 melanoma) > 100 µM | GI50 (UACC-257 melanoma) > 100 µM | GI50 (A549 NSCLC) > 100 µM | GI50 (IGROV1 ovarian) > 100 µM | GI50 (SF-539 CNS) > 100 µM | GI50 (U251 CNS) > 100 µM | GI50 (HL-60(TB) leukemia) > 100 µM | GI50 (MOLT-4 leukemia) > 100 µM | GI50 (COLO 205 colon) > 100 µM | GI50 (SNB-78 CNS) > 100 µM | GI50 (HCC-2998 colon) > 100 µM | GI50 (K-562 leukemia) > 100 µM | GI50 (SK-MEL-5 melanoma) > 100 µM | GI50 (LXFL 529 NSCLC) > 100 µM | GI50 (786-0 renal) > 100 µM | GI50 (MALME-3M melanoma) > 100 µM | GI50 (OVCAR-5 ovarian) > 100 µM | GI50 (HT29 colon) > 100 µM | GI50 (OVCAR-4 ovarian) > 100 µM | GI50 (HOP-92 NSCLC) > 100 µM | GI50 (TK-10 renal) > 100 µM | GI50 (UO-31 renal) > 100 µM | GI50 (A498 renal) > 100 µM | GI50 (ACHN renal) > 100 µM | GI50 (M14 melanoma) > 100 µM | GI50 (UACC-62 melanoma) > 100 µM | GI50 (DMS 273 small cell lung) > 100 µM | GI50 (NCI-H460 lung) > 100 µM | GI50 (SK-MEL-28 melanoma) > 100 µM | GI50 (CCRF-CEM leukemia) > 100 µM | GI50 (NCI-H23 lung) > 100 µM | GI50 (DLD-1 colon) > 100 µM | GI50 (SNB-19 CNS) > 100 µM | GI50 (SNB-75 CNS) 29.6 µM | GI50 (OVCAR-8 ovarian) > 100 µM | GI50 (EKVX NSCLC) > 100 µM | GI50 (SW-620 colon) > 100 µM
> 100 µM: TGI (HOP-62 NSCLC) | TGI (HCT-15 colon) | TGI (RPMI-8226 leukemia) | TGI (LOX IMVI melanoma) | TGI (SF-268 CNS) | TGI (HCT-116 colon) | TGI (NCI-H522 lung) | TGI (KM12 colon) | TGI (SF-295 CNS) | TGI (KM20L2 colon) | TGI (SK-OV-3 ovarian) | TGI (OVCAR-3 ovarian) | TGI (SN12C renal) | TGI (SK-MEL-2 melanoma) | TGI (UACC-257 melanoma) | TGI (A549 NSCLC) | TGI (IGROV1 ovarian) | TGI (SF-539 CNS) | TGI (U251 CNS) | TGI (HL-60(TB) leukemia) | TGI (MOLT-4 leukemia) | TGI (COLO 205 colon) | TGI (SNB-78 CNS) | TGI (HCC-2998 colon) | TGI (K-562 leukemia) | TGI (SK-MEL-5 melanoma) | TGI (LXFL 529 NSCLC) | TGI (786-0 renal) | TGI (MALME-3M melanoma) | TGI (OVCAR-5 ovarian) | TGI (HT29 colon) | TGI (OVCAR-4 ovarian) | TGI (HOP-92 NSCLC) | TGI (TK-10 renal) | TGI (UO-31 renal) | TGI (A498 renal) | TGI (ACHN renal) | TGI (M14 melanoma) | TGI (UACC-62 melanoma) | TGI (DMS 273 small cell lung) | TGI (NCI-H460 lung) | TGI (SK-MEL-28 melanoma) | TGI (CCRF-CEM leukemia) | TGI (NCI-H23 lung) | TGI (DLD-1 colon) | TGI (SNB-19 CNS) | TGI (SNB-75 CNS) | TGI (OVCAR-8 ovarian) | TGI (EKVX NSCLC) | TGI (SW-620 colon)

CCCC(=O)N[C@H]1C2C3CC4C5CC(C42)C1(C)C53 (some centres undefined)
> 100 µM: TGI (HOP-62 NSCLC) | TGI (HCT-15 colon) | TGI (RPMI-8226 leukemia) | TGI (LOX IMVI melanoma) | TGI (SF-268 CNS) | TGI (CAKI-1 renal) | TGI (HCT-116 colon) | TGI (NCI-H522 lung) | TGI (M19-MEL melanoma) | TGI (KM12 colon) | TGI (SF-295 CNS) | TGI (KM20L2 colon) | TGI (SK-OV-3 ovarian) | TGI (OVCAR-3 ovarian) | TGI (SN12C renal) | TGI (SK-MEL-2 melanoma) | TGI (UACC-257 melanoma) | TGI (A549 NSCLC) | TGI (IGROV1 ovarian) | TGI (SF-539 CNS) | TGI (U251 CNS) | TGI (HL-60(TB) leukemia) | TGI (MOLT-4 leukemia) | TGI (COLO 205 colon) | TGI (SNB-78 CNS) | TGI (HCC-2998 colon) | TGI (K-562 leukemia) | TGI (SK-MEL-5 melanoma) | TGI (786-0 renal) | TGI (MALME-3M melanoma) | TGI (NCI-H226 lung) | TGI (OVCAR-5 ovarian) | TGI (HT29 colon) | TGI (OVCAR-4 ovarian) | TGI (RXF 393 renal) | TGI (HOP-92 NSCLC) | TGI (TK-10 renal) | TGI (HOP-18 NSCLC) | TGI (SR leukemia) | TGI (UO-31 renal) | TGI (A498 renal) | TGI (ACHN renal) | TGI (M14 melanoma) | TGI (UACC-62 melanoma) | TGI (DMS 273 small cell lung) | TGI (NCI-H460 lung) | TGI (SK-MEL-28 melanoma) | TGI (CCRF-CEM leukemia) | TGI (DLD-1 colon) | TGI (SNB-19 CNS) | TGI (SNB-75 CNS) | TGI (EKVX NSCLC) | TGI (SW-620 colon)
